Assay results: US7947653B1, “Methods for treating epidermal growth factor receptor tyrosine kinase inhibitor-resistant cancers” (Cold Spring Harbor Laboratory, priority 2009, dated 2011)

Columns and labels:
[1] = test system: IL-6; test: IL-6 immunostaining of tumor sections; type: in vivo, Nu/Nu mice; conditions: TPA-treated versus acetone-treated mice, topical
Experimental: Formalin-fixed, paraffin-embedded sections (4 μm) were stained for IL-6. Sections were de-embedded and rehydrated and epitope retrieval was performed by heating the sections in 0.01M citrate buffer at pH 6.0 in a microwave oven for 10 minutes. Endogenous peroxidase activity was blocked by treatment with 3% hydrogen peroxide in PBS for 10 minutes. After washing with PBS the blocking was performed using the Avidin/Biotin blocking kit (Vector laboratories, Cambridge, UK), Super Block (ID laboratories, London, CDN) and Mouse Block (ID laboratories, London, CDN). The sections were incubated with the primary antibody IL-6 (ab6672; Abcam, Cambridge, UK) in 1:300 dilution at 4° C. overnight. The IHC detection was done with the IDetect Super Stain System HRP (ID laboratories, London, CDN). […]
Protein expression was measured by defining regions of interest (ROI) using automated cell acquisition and quantification software for Immunohistochemistry (Histoquest™) and immunofluorescence (Tissuequest™).
Immunostaining of tumor sections using an anti-IL-6 antibody confirmed that TPA was able to augment IL-6 expression in the tumors. […] The levels of IL-6 in tumor matters were further measured by defining regions of interest (ROI) using automated cell acquisition and quantification software for immunohistochemistry (Histoquest™) or quantification software for immunofluorescence (Tissuequest™). […]

[2] = test system: NCI-H1650 cells; test: Mouse xenograft model, tumor burden; type: in vivo, Nu/Nu mice; conditions: topical TPA 5 days, then erlotinib by oral gavage versus DMSO
Experimental: The in vivo mouse experiments were performed by inoculating subcutaneously 3×10^6 NCI-H1650 cells subcutaneously into each flank of immunodeficient Nu/Nu mice in Swiss CD 1 background (Charles River Breeding Laboratories, Wilmington, Mass.). After the tumors reached a volume of approximately 100 mm^3, mice were treated topically every 2 days with TPA (10 μL of 0.25 mg/mL solution in acetone) or with acetone for 5 days. […] Tumor volume was monitored with a digital caliper and calculated using the following formula: (length)×(width)^2/2.
IL-6 is a pleiotropic cytokine that exerts important biological functions in a wide variety of systems and processes (e.g., inflammation, acute-phase reaction, nervous and endocrine systems, bone metabolism, hematopoiesis). […] Cutaneous inflammation and secretion of IL-6 by topic treatment of the mouse epidermis with low dose of 12-O-tetradecanoyl-phorbol-13-acetate (TPA) every other day was induced in a Nu/nu mouse model (Vasunia et al. Carcinogenesis 1994, 15: 653). Acetone was used as a vehicle control. The Nu/nu mice were subsequently injected in the flank with NSCLC expressing mutant EGFR.
After 8 days, tumor burden was evaluated and the averages of four separate tumors were charted.

[3] = test system: NCI-H1650 M3 cells; test: Sensitivity to erlotinib, MTT assay, erlotinib-resistant cells; type: cell-based, human
Experimental: Viability was measured by MTT assay relative to untreated cells, with each data point showing the average of four replicates.

[4] = test system: phospho-STAT3; test: Western blot for phospho-STAT3, NCI-H1650 M3 cells; type: cell-based, human
Experimental: (§1) Adherent cells were washed with 1×PBS and whole cell lysate was extracted and western blot analysis was performed as previously described (Sordella et al. Science 305, 1163-1167; 2004). Antibodies against phosphor-EGFR (Tyr1068), total Akt, phospho-Akt (Ser473), total ERK 1/2, phospho-ERK 1/2 (Thr202/tyr204), phospho-STAT3 (Tyr705), cleaved PARP and phospho-MET (Tyr1234/Tyr1235) were purchased from Cell Signaling Technology (Danvers, Mass.). Total cMET and total EGFR antibodies were purchased from Santa Cruz Biotechnology (Santa Cruz, Calif.). The antibody against total STAT3 was purchased from BD Biosciences (San Jose, Calif.).
To determine whether IL-6 was the autocrine factor responsible for promoting STAT3 phosphorylation in the erlotinib-resistant cells, the expression of IL-6 was inhibited using siRNA technology. Briefly, NCI-H 1650 M3 cells were transfected with siRNA targeting IL-6 (siRNA I and II) or a non-specific siRNA (siRNA III) using Lipofectamine 2000 at a final concentration of 30 nM siRNA. After 6 days cell extracts were analyzed by immunoblotting for phospho-STAT3, STAT3 and tubulin. […] Thus, an increased secretion of IL-6 was responsible for the observed STAT3 phosphorylation. […] Cell extracts were analyzed by immunoblot for phospho-STAT3 and total STAT3. […]

[5] = test system: phospho-STAT3; test: Western blot for phospho-STAT3, parental cells; type: cell-based, human
Experimental: as §1
(§2) Cell extracts were analyzed by immunoblotting with antibodies specific to Tubulin, AKT, P-AKT, STAT3, and P-STAT3.

[6] = test system: P-EGFR; test: Western blot for P-EGFR, parental and resistant cells; type: cell-based, human; conditions: parental versus NCI-H1650 M3, erlotinib 0.01-10 μM, 3 hours
From the text: (§3) Antibodies against phosphor-EGFR (Tyr1068), total Akt, phospho-Akt (Ser473), total ERK 1/2, phospho-ERK 1/2 (Thr202/tyr204), phospho-STAT3 (Tyr705), cleaved PARP and phospho-MET (Tyr1234/Tyr1235) were purchased from Cell Signaling Technology (Danvers, Mass.). Total cMET and total EGFR antibodies were purchased from Santa Cruz Biotechnology (Santa Cruz, Calif.). The antibody against total STAT3 was purchased from BD Biosciences (San Jose, Calif.).

[7] = test system: NCI-H1650; test: Sensitivity to erlotinib, MTT assay; type: cell-based; conditions: Homo sapiens, read-out: IC50 to either gefitinib or erlotinib treatment; NCI-H1650, EGFR delE746-A750; 'typically displays'
[8] = test system: cleaved PARP; test: Immunoblot for cleaved PARP (apoptosis); type: cell-based, human
Experimental: as §1
Cells not treated with the drug were used as a control. Cell extracts obtained after 72 hours were analyzed by immunoblotting for cleaved PARP (CL-PARP), an indicator of apoptosis status.

[9] = test system: IL-6; test: IL-6 ELISA of cell media; type: cell-based, human; conditions: NCI-H1650 M3, in the presence of erlotinib 10 μM
Experimental: Cells were grown to approximately 80% confluency. Cells were washed with 1×PBS and fresh media was added. After 24 hours the supernatant was collected and analyzed for IL-6 using an ELISA kit (Diaclone, Canton, Mass.) following the manufacturers instruction.
The mRNA levels of various secreted proteins, including HGF, EGF, LIF, CNTF, IL-1A, IL-11, OSM and IL-6 (which are known to increase STAT3 phosphorylation), were examined by RT-PCR, the results normalized against beta-actin mRNA levels. No substantial levels of HGF were detected in either the parental-sensitive cells or in the resistant cells. Among these protein factors, a substantial increase in IL-6 mRNA levels was found in the resistant cells as compared to parental cells. This increase in IL-6 mRNA expression correlated with augmented levels of the protein secretion as determined by enzyme-linked immunosorbent assay (ELISA). See FIG. 2, Panel A; levels of IL-6 were measured by ELISA with each point representing the average of four data points.

[10] = test system: P-AKT; test: Western blot for P-AKT; type: cell-based, human
Experimental: as §3, §2

[11] = test system: NCI-H1650 cells; test: Soft agar assay; type: cell-based, human; conditions: NCI-H1650, erlotinib with or without IL-6 (10 ng/ML)
Experimental: Cells were plated in triplicate in 12-well plates at 5000 cells/well, mixed in RPMI-1640, 5% FBS and 0.35% agarose. Cells were cultured for 20 days in presence of the indicated treatment. Colonies were visualized by staining with tetrazolium salt (Schaeffer W. I., Friend K. (1976) Cancer Lett 1:259-262). The number of colonies were determined using the J-Image software (htpp://rsbweb.hih.gov/ij/) on Z-stack images (Z=1.5 mm) at 5× magnification. Each data point represents the average of 3 fields from 3 individual wells.
The numbers of cell colonies were countered after a suitable period of time. The number of colonies were determined using the J-image software on Z-stack images (Z=1.5.mm) at 5× magnification. […] See FIG. 3, Panel C (each point represents the average of 3 fields from individual wells). […] See FIG. 3, Panel D (each bar representing the average of 4 replicates).

[12] = test system: PC9 cells; test: Sensitivity to erlotinib with IL-6, MTT assay; type: cell-based, human; conditions: PC9, 10 ng/ml IL-6 24 hours, then erlotinib at various concentrations 72 hours
[13] = test system: NSCLC cell lines expressing mutant EGFR; test: Cell proliferation upon stimulation with IL-6; type: cell-based, human; conditions: stimulation with IL-6 (10 ng/ml)
[14] = cells grown with or without IL-6, then erlotinib 4 hours, cell line not stated

CCCCCCCCCCCCCC(=O)O[C@@H]1[C@@H](C)[C@@]2(O)[C@@H](C=C(CO)C[C@]3(O)C(=O)C(C)=C[C@@H]23)[C@@H]2C(C)(C)[C@]12OC(C)=O [TPA, 12-O-tetradecanoyl-phorbol-13-acetate]
IL-6 mean intensity in tumors [1]: much higher | tumor response to erlotinib treatment (tumor burden) [2]: dramatically reduced

CC(C)(C)c1nc2c3ccc(F)cc3c3c(=O)[nH]ccc3c2[nH]1 [P6, 2-tert-butyl-9-fluoro-3,6-dihydro-7H-benz[h]-imidaz[4,5-f] isoquinoline-7-one]
cell viability upon erlotinib treatment ([3]; NCI-H1650 M3, P6 2 μM): significantly decreased | STAT3 phosphorylation levels ([4]; NCI-H1650 M3, 2 μM, 2 days): decreased

C#Cc1cccc(Nc2ncnc3cc(OCCOC)c(OCCOC)cc23)c1 [erlotinib, N-(3-ethynylphenyl)-6,7-bis(2-methoxyethoxy)quinazolin-4-amine]
phosphorylated STAT3 ([5]; parental NCI-H1650 cells, high erlotinib concentrations, 3 hours): undetectable | EGFR phosphorylation levels upon erlotinib treatment [6]: comparable inhibition | IC50 [7]: ~5 µM | erlotinib concentration in the presence of which the isolated cell line is capable of growing ([3]; NCI-H1650 M3, selected in constant high erlotinib): up to 30 μM | cell viability of NCI-H1650 M3 cells versus parental cells ([3]; erlotinib 0.3125-10 μM, 72 hours, particularly at high concentrations): much higher than that of the parental cells | cleavage of PARP upon erlotinib treatment ([8]; NCI-H1650 M3 compared to parental cells, erlotinib 10 μM, 24 hours): substantial decrease | level of CL-PARP in erlotinib-treated cells compared to control cells ([8]; resistant cells, extracts after 72 hours): significantly increased | IL-6 levels in the media (ELISA) [9]: did not change | STAT3 phosphorylation levels ([4]; NCI-H1650 M3, erlotinib up to 10 μM, 3 hours): maintained high STAT3 phosphorylation levels | levels of phosphorylation of AKT ([10]; parental versus NCI-H1650 M3, erlotinib treatment): similarly inhibited

IL-6: Recombinant Interleukin-6 (rhIL6) from R&D systems
cell resistance to erlotinib (number of colonies in soft agar) [11]: significantly increased cell resistance to erlotinib | effect on erlotinib-mediated inhibition of STAT3 phosphorylation [5, 14]: impaired inhibition of STAT3 phosphorylation | cell resistance to erlotinib (viability by MTT) [12]: increased PC9 cell resistance to erlotinib | CL-PARP levels in the drug treated cells ([8]; resistant cells grown with IL-6 24 hours, then erlotinib, 72 hours): decreased CL-PARP levels | cell proliferation [13]: No substantial changes | effect on erlotinib-mediated inhibition of AKT activation [10, 14]: did not have any effect
